Measurements from patent US7923461B2, “TNF-α production inhibitors” (Santen Pharmaceutical Co., Ltd., priority 2000, dated 2011).

Legend:
TNF-α production = experiment: Inhibitory effects on TNF-α production induced by lipopolysaccharide (LPS) stimulation, in vivo test; design: species or system rat; settings: Rattus norvegicus, 2 h, female rats, plasma TNF-α (ELISA) two hours after LPS, read-out: Inhibition rate (%) of TNF-α production; for inhibition in vivo at 10 mg/kg: oral administration of 10 mg/kg immediately after LPS to footpad; for inhibition in vivo at 3 mg/kg: oral administration of 3 mg/kg immediately after LPS to footpad
Experimental: Inhibitory effects on TNF-α production induced by lipopolysaccharide (LPS) stimulation were studied by in vivo tests according to the method of Tsuji et al. (Inflamm res. 46 (1997) 193-198).
Female rats (five per group), body weight of about 200 g, about eight weeks old, were used as test animals. LPS from Salmonella was dissolved in physiological saline to prepare an LPS solution (1 mg/ml). Each test substance was dissolved or uniformly suspended in a 1% methylcellulose solution to give test substance-preparation liquids.
The above-mentioned LPS solution (0.5 ml/kg) was administered to a footpad of the rat. Immediately after the LPS administration, the test substance-preparation liquid (containing 10 mg/kg or 3 mg/kg test substance) was orally administered. Two hours after the LPS administration, blood was collected from abdominal aorta and was centrifuged at 4° C. and 3000 rpm for ten minutes. TNF-α levels in the obtained plasma were measured with a rat TNF-α-specific ELISA kit. TNF-α was not observed in the plasma with respect to an LPS-non-administered group (control).
Inhibition rates of TNF-α production of the test substances were determined by the following equation. Inhibition rate (%)=[(A−B)/A]×100 A: TNF-α level in plasma of test substance-nonadministered group B: TNF-α level in plasma of test substance-administered group (Results)

Row | melting point [°C] | SMILES | inhibition in vivo at 10 mg/kg (TNF-α production) [%] | inhibition in vivo at 3 mg/kg (TNF-α production) [%]
1 | 123 to 125 | O=C(NCCCc1ccncc1)N(CCC12CC3CC(CC(C3)C1)C2)CC1CC1 [Compound No. 1-22, 1-[2-(1-Adamantyl)ethyl]-1-cyclopropylmethyl-3-[3-(4-pyridyl)propyl]urea] | 87 | 
2 | 89.5 to 93.5 | CC=CCN(CCC12CC3CC(CC(C3)C1)C2)C(=O)NCCCc1ccncc1 [Compound No. 1-25, 1-[2-(1-Adamantyl)ethyl]1-(2-butenyl)-3-[3-(4-pyridyl)propyl]urea] | 89 | 
3 | 142.5 to 144.5 | O=C(NCCCc1ccncc1)N(CCC12CC3CC(CC(C3)C1)C2)Cc1cccs1 [Compound No. 1-27, 1-[2-(1-Adamantyl)ethyl]-3-[3-(4-pyridyl)propyl]-1-(2-thienyl)methylurea] | 81.3 | 
4 | 128 to 130 | O=C(NCCCc1ccncc1)N(CCC12CC3CC(CC(C3)C1)C2)Cc1ccco1 [Compound No. 1-42, 1-[2-(1-Adamantyl)ethyl]-1-furfuryl-3-[3-(4-pyridyl)propyl]urea] | 86.7 | 
5 | 130.5 to 135 | O=C(NCCCc1ccncc1)N(CCC12CC3CC(CC(C3)C1)C2)Cc1ccccc1 [Compound No. 1-43, 1-[2-(1-Adamantyl)ethyl]-1-benzyl-3-[3-(4-pyridyl)propyl]urea] | 67.6 | 

More lines, now with the values behind:

Row | SMILES | melting point [°C] | inhibition in vivo at 10 mg/kg (TNF-α production) [%] | inhibition in vivo at 3 mg/kg (TNF-α production) [%]
6 | O=C(NCCCc1ccncc1)N(CCC(F)(F)F)CCC12CC3CC(CC(C3)C1)C2 [Compound No. 1-24, 1-[2-(1-Adamantyl)ethyl]-3-[3-(4-pyridyl)propyl]-1-(3,3,33-trifluoropropyl)urea] | 107.5 to 109 | 95.8 | 
7 | CC(C)=CCN(CCC12CC3CC(CC(C3)C1)C2)C(=O)NCCCc1ccncc1 [Compound No. 1-31, 1-[2-(1-Adamantyl)ethyl]-1-(3-methyl-2-butenyl)-3-[3-(4-pyridyl)propyl]urea] | 93 to 96 | 92.6 | 
8 | CCCCCCCCCCN(CCC12CC3CC(CC(C3)C1)C2)C(=O)NCCCc1ccncc1 [Compound No. 1-32, 1-[2-(1-Adamantyl)ethyl]-1-decyl-3-[3-(4-pyridyl)propyl]urea] | 75 to 76 | 62.4 | 
9 | O=C(NCCCc1ccncc1)N(CC=Cc1ccccc1)CCC12CC3CC(CC(C3)C1)C2 [Compound No. 1-34, 1-[2-(1-Adamantyl)ethyl]-1-cinnamyl-3-[3-(4-pyridyl)propyl]urea] | 130 to 134.5 | 70.8 | 
10 | CCCCCNC(=O)N(CCCc1ccncc1)CCC12CC3CC(CC(C3)C1)C2 [Compound No. 1-66, 1-[2-(1-Adamantyl)ethyl]-3-pentyl-1-[3-(4-pyridyl)propyl]urea] | 47 to 50 | 79.4 | 
11 | CC(C)N(CCC12CC3CC(CC(C3)C1)C2)C(=O)NCCCc1ccncc1 [Compound No. 1-68, 1-[2-(1-Adamantyl)ethyl]-1-isopropyl-3-[3-(4-pyridyl)propyl]urea] | 132 to 134 | 79 | 
12 | O=C(NCCCc1ccncc1)N(CCC12CC3CC(CC(C3)C1)C2)C1CCCC1 [Compound No. 1-70, 1-[2-(1-Adamantyl)ethyl]-1-cyclopentyl-3-[3-(4-pyridyl)propyl]urea] | 135.5 to 137.5 | 87.9 | 
13 | CCCCCN(CCC12CC3CC(CC(C3)C1)C2)C(=O)NCCCc1cccnc1 [Compound No. 1-84, 1-[2-(1-Adamantyl)ethyl]-1-pentyl-3-[3-(3-pyridyl)propyl]urea] | 99.9 to 105.2 |  | 35.5
14 | CCCCCN(CCC12CC3CC(CC(C3)C1)C2)C(=O)NC(C)CCc1ccncc1 (stereo not shown) [Compound No. 1-137, 1-[2-(1-Adamantyl)ethyl]-3-[1-methyl-3-(4-pyridyl)propyl]-1-pentylurea] | 128.5 to 129 |  | 82.1
